Assay [1] has as its system Kidney cancer tumor cells. The assay is described as follows: MTT proliferation inhibition, kidney cancer cells. The format is cell-based, human. Also on record: concentration or dose not given beside the values. The following applies: 48 h. Put shortly: (§1)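 Tumour cells plated at 2×10^4 cells/mL, attached overnight, then exposed to dilutions of mPEG-HM-1 for 48 h at 37 °C, 5% CO2. MTT added 4 h, formazan dissolved in DMSO, absorbance 570/630 nm; growth inhibition = 1 − treated/untreated, three independent repeats, mean±SD.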

Assay [2] deals with Ovarian cancer tumor cells. The assay is described as follows: MTT proliferation inhibition, ovarian cancer cells. Also on record: concentration or dose not given beside the values. The note with it: 48 h. Format: cell-based, human. Summed up:
as §1

The subject of the next assay is Melanoma tumor cells. The assay is described as follows: MTT proliferation inhibition, melanoma cells. The format is cell-based, human. Also on record: concentration or dose not given beside the values. The following applies: 48 h. Summed up: as §1
Assay [3] concerns corneal neovascularization in BALB/c mice. The assay is described as follows: Alkali-burn corneal neovascularization in BALB/c mice (CD31 microvessel density). Format: in vivo, mouse. The following applies: for Inhibition rate: corneal microvessel density vs control; for Inhibition rate / MVD: day 14 after alkali burn, intravitreal once a day for 1 week; for MVD: microvessel density (CD31) of cornea; for inhibition rate of corneal neovascularization: BALB/c mice, alkali burn, intravitreal injection once a day for 1 week. Summed up:
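Mice received mPEG-HM-1 or saline by intravitreal injection once daily for 1 week after corneal alkali burn, with slit-lamp observation at 1, 7 and 14 d. At day 14, 8 μm frozen corneal sections were stained with anti-CD31, and microvessels per unit corneal area were counted; mean±SD of 3 independent tests, t test.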

Another assay has as its system Hemangioma tumor cells. The assay is described as follows: MTT proliferation inhibition, hemangioma cells. The format is cell-based, human. The arrangement: concentration or dose not given beside the values. The following applies: 48 h. Summed up:
as §1

The next assay has as its system Liver cancer tumor cells. Briefly: MTT proliferation inhibition, liver cancer cells. The format is cell-based, human. Also on record: concentration or dose not given beside the values. The note with it: 48 h. Summed up: as §1
Assay [4] relates to Bladder Cancer tumor cells. The assay is described as follows: MTT proliferation inhibition, bladder cancer cells. Format: cell-based, human. The following applies: 48 h. The arrangement: concentration or dose not given beside the values. Put shortly: as §1
Assay [5] deals with Human Umbilical Vein Endothelial Cells (HUVEC). The assay is described as follows: Transwell migration of HUVEC. Format: cell-based. The note with it: 24 h. Summed up:
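HUVEC (1×10^5/mL in blank medium) seeded with test solutions into Matrigel-coated transwell inserts, lower chamber holding medium with 5% FBS and 1% ECGS, 24 h at 37 °C. Migrated cells crystal-violet stained and counted in four fields; migration inhibition calculated from test versus blank-control counts, three independent repeats.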

The test system of assay [6] is adjuvant arthritis (AA) SD rats. Briefly: Adjuvant arthritis (AA) rat model. Format: in vivo. The following applies: for Joint swelling / Left and right paw swelling / Clinical score: AA SD rats; for Clinical score: maximum score 16; for in vivo immune protection effect on adjuvant arthritis model (in words): AA rats, subcutaneous, once every three days, vs model group.

Assay [7] has as its system Breast cancer tumor cells. Briefly: MTT proliferation inhibition, breast cancer cells. The arrangement: concentration or dose not given beside the values. The note with it: 48 h. The format is cell-based, human. Summed up: as §1
Assay [8] concerns Gastric cancer tumor cells. The assay is described as follows: MTT proliferation inhibition, gastric cancer cells. The format is cell-based, human. Also on record: concentration or dose not given beside the values. The following applies: 48 h. Summed up: as §1
Assay [9] relates to Pancreatic cancer tumor cells. The assay is described as follows: MTT proliferation inhibition, pancreatic cancer cells. Format: cell-based, human. Also on record: concentration or dose not given beside the values. The note with it: 48 h. Summed up: as §1
Where [10] appears, read: 80 mg/kg subcutaneous once every three days.
Setting [11] is: 10 mg/kg subcutaneous once every three days.
The mark [12] stands for this setting: 20 mg/kg subcutaneous once every three days.

Marks after values point to notes of the source that are not given here. Where no end group is shown, it is not given here.

Take “mPEG-SC40k-Arg-Gly-Ala-Asp-Arg-Ala-Gly-Gly-Gly-Gly-Arg-Gly-Asp ({mPEG‑SC 40 kDa}-RGADRAGGGGRGD) [mPEG-SC40k-HM-1]”: the “rate of growth inhibition” value was 62.23 ± 16.51% in assay [1]; 68.46 ± 13.19% in assay [2]; 68.73 ± 21.25% in the assay on Melanoma tumor cells; 53.36 ± 15.09% in the assay with Hemangioma tumor cells; 60.37 ± 14.74% in the assay with Liver cancer tumor cells; 48.69 ± 11.61% in assay [4]. In addition, the “rate of growth inhibition” value was 50.12 ± 18.09% in assay [7], 55.13 ± 10.32% in [8] and 60.45 ± 17.25% in [9]. Further, the Inhibition rate in assay [3] is on record as 43.48%. Also, the MVD in [3] is on record as 37.72 ± 4.153**. In addition, the “cell migration number (Mean ± SD)” value was 632.63 ± 58.69 in assay [5] (90 μg/mL), 501.84 ± 62.84 in [5] (100 μg/mL), 464.50 ± 48.47 in assay [5] (110 μg/mL) and 542.89 ± 49.29 in [5] (120 μg/mL). For the same substance, the “inhibition rate of HUVEC migration” value is given as 40.36%* in [5] (90 μg/mL), 52.69% in assay [5] (100 μg/mL), 56.21% in [5] (110 μg/mL) and 48.82%* in assay [5] (120 μg/mL). The Joint swelling in assay [6] (setting [10]) was 0.71 ± 0.11 mm. Further, the “Left and right paw swelling” value in [6] (setting [10]) stood at 3.83 ± 0.62 mm. In [6] (setting [10]), the Clinical score came out at 5.88 ± 1.08.

In the case of “mPEG-SC5k-Arg-Gly-Ala-Asp-Arg-Ala-Gly-Gly-Gly-Gly-Arg-Gly-Asp ({mPEG‑SC 5 kDa}-RGADRAGGGGRGD) [mPEG-SC5k-HM-1]”, the “rate of growth inhibition” value in [1] came to 51.07 ± 12.45%; in [2] it was 60.81 ± 20.27%; with Melanoma tumor cells, 61.27 ± 18.13%; in the assay with Hemangioma tumor cells, 43.68 ± 12.53%; in the assay on Liver cancer tumor cells it was 51.34 ± 11.25%; in assay [4], 35.72 ± 11.52%. For the same substance, the entries for the “rate of growth inhibition” value in assay [7], in [8] and in assay [9] were 48.13 ± 12.17%, 52.12 ± 13.22% and 51.37 ± 16.23%, respectively. Further, the Inhibition rate in [3] is reported as 40.52%. Moreover, in assay [3], the MVD was 39.69 ± 3.527*. For the same substance, the “cell migration number (Mean ± SD)” value in assay [5] (30 μg/mL) is reported as 617.03 ± 60.97; in [5] (40 μg/mL), 517.43 ± 50.39; in assay [5] (50 μg/mL) it was 469.59 ± 48.95; in assay [5] (60 μg/mL), 601.65 ± 60.73. The “inhibition rate of HUVEC migration” value in [5] (30 μg/mL) is listed as 41.83%*; in assay [5] (40 μg/mL), 51.22%; in assay [5] (50 μg/mL) it was 55.73%; in [5] (60 μg/mL), 43.28%*. Moreover, the Joint swelling in assay [6] (setting [11]) stood at 0.74 ± 0.18 mm. The “Left and right paw swelling” value in assay [6] (setting [11]) was found to be 3.96 ± 0.71 mm. Further, the Clinical score in assay [6] (setting [11]) is given as 5.95 ± 1.07.

As for “mPEG-bALD10k-Arg-Gly-Ala-Asp-Arg-Ala-Gly-Gly-Gly-Gly-Arg-Gly-Asp ({mPEG‑bALD 10 kDa}-RGADRAGGGGRGD) [mPEG-bALD10k-HM-1]”, the “rate of growth inhibition” value is 70.19 ± 18.11% in [1]; 80.35 ± 20.53% in [2]; 82.33 ± 20.08% in the assay on Melanoma tumor cells; 55.28 ± 12.30% with Hemangioma tumor cells; 68.59 ± 20.19% with Liver cancer tumor cells; 49.61 ± 12.12% in assay [4]. Besides, the “rate of growth inhibition” value in assay [7] was 68.15 ± 15.87%; in [8], 75.01 ± 16.20%; in assay [9] it was 75.23 ± 16.41%. The “inhibition rate of corneal neovascularization” value in assay [3] came out at 52.03%. Further, the Inhibition rate in assay [3] is listed as 52.03%. The MVD in assay [3] is 32.01 ± 5.738**. The “cell migration number (Mean ± SD)” value in [5] (50 μg/mL) is 589.97 ± 56.24; in assay [5] (60 μg/mL) it was 483.16 ± 50.26; in assay [5] (90 μg/mL), 504.35 ± 48.36; in assay [5] (100 μg/mL) it was 568.57 ± 56.90. Moreover, the “inhibition rate of HUVEC migration” value stood at 45.98%* in assay [5] (50 μg/mL); 55.76% in [5] (60 μg/mL); 60.38%** in [5] (70 μg/mL); 53.82%** in [5] (90 μg/mL); 47.94%* in assay [5] (100 μg/mL). Besides, the Joint swelling in assay [6] (setting [12]) came to 0.69 ± 0.13 mm. Further, the “Left and right paw swelling” value in assay [6] (setting [12]) was 3.73 ± 0.52 mm. Besides, the Clinical score in assay [6] (setting [12]) worked out at 5.40 ± 1.09. In addition, the “in vivo immune protection effect on adjuvant arthritis model (in words)” value in assay [6] was “has the most significant effect”.

Take “mPEG-ALD10k-Arg-Gly-Ala-Asp-Arg-Ala-Gly-Gly-Gly-Gly-Arg-Gly-Asp ({mPEG‑ALD 10 kDa}-RGADRAGGGGRGD) [mPEG-ALD10k-HM-1]”: the “rate of growth inhibition” value in [1] was found to be 75.23 ± 19.11%; in [2], 85.73 ± 22.17%; in the assay on Melanoma tumor cells, 88.39 ± 22.38%; in the assay on Hemangioma tumor cells it was 60.25 ± 14.33%; in the assay on Liver cancer tumor cells, 70.55 ± 20.09%; in [4], 52.68 ± 13.12%. Moreover, the “rate of growth inhibition” value in [7] came out at 70.19 ± 17.07%; in [8], 80.01 ± 18.26%; in assay [9], 79.21 ± 19.14%. In addition, the “inhibition rate of corneal neovascularization” value in [3] stood at 53.83%. Further, the Inhibition rate in assay [3] is listed as 53.83%. In addition, the MVD in assay [3] is 30.81 ± 5.465**. Further, the “cell migration number (Mean ± SD)” value in [5] (50 μg/mL) came to 604.31 ± 52.14; in assay [5] (60 μg/mL), 514.38 ± 42.38; in assay [5] (70 μg/mL), 417.96 ± 50.48; in assay [5] (80 μg/mL), 548.54 ± 56.22. The “inhibition rate of HUVEC migration” value was 41.27%* in assay [5] (50 μg/mL), 50.01% in assay [5] (60 μg/mL), 59.38% in assay [5] (70 μg/mL) and 46.69%* in [5] (80 μg/mL). In assay [6] (setting [12]), the Joint swelling is recorded as 0.68 ± 0.15 mm. Also, the “Left and right paw swelling” value in [6] (setting [12]) was determined as 3.72 ± 0.54 mm. The Clinical score in [6] (setting [12]) is recorded as 5.39 ± 1.10. Besides, in assay [6], the “in vivo immune protection effect on adjuvant arthritis model (in words)” value is reported as “has the most significant effect”.

As for “mPEG-bALD5k-Arg-Gly-Ala-Asp-Arg-Ala-Gly-Gly-Gly-Gly-Arg-Gly-Asp ({mPEG‑bALD 5 kDa}-RGADRAGGGGRGD) [mPEG-bALD5k-HM-1]”, the “rate of growth inhibition” value worked out at 57.63 ± 12.09% in [1]; 66.76 ± 18.59% in [2]; 65.62 ± 20.35% in the assay on Melanoma tumor cells; 40.29 ± 12.16% in the assay with Hemangioma tumor cells; 55.63 ± 10.27% in the assay on Liver cancer tumor cells; 36.03 ± 10.12% in assay [4]. For the same substance, the results for the “rate of growth inhibition” value in assay [7], in assay [8] and in assay [9] were 50.02 ± 10.47%, 56.87 ± 14.41% and 53.14 ± 10.34%, respectively. In addition, in assay [3], the Inhibition rate amounted to 43.10%. For the same substance, the MVD in assay [3] is given as 37.97 ± 3.914*. Moreover, the “cell migration number (Mean ± SD)” value in [5] (30 μg/mL) is on record as 654.96 ± 52.07; in [5] (40 μg/mL), 545.96 ± 45.32; in [5] (50 μg/mL) it was 489.28 ± 46.98; in assay [5] (60 μg/mL), 577.96 ± 58.76. The “inhibition rate of HUVEC migration” value in assay [5] (30 μg/mL) amounted to 40.03%*; in [5] (40 μg/mL), 50.01%; in assay [5] (50 μg/mL), 55.20%; in [5] (60 μg/mL) it was 47.08%*. The Joint swelling in [6] (setting [11]) came out at 0.73 ± 0.18 mm. For the same substance, the “Left and right paw swelling” value in [6] (setting [11]) is listed as 3.94 ± 0.65 mm. The Clinical score in assay [6] (setting [11]) is recorded as 5.92 ± 1.11.

Source of the values: US10869931B2, “Polyethylene glycol-modified angiogenesis inhibitor HM-1 and application thereof” (NANJING ANJI BIOLOGICAL TECHNOLOGY CO.,LTD, priority 2016, dated 2020).
